Test results taken from paper PMC11435058, “Synthesis of New Thiazole-Privileged Chalcones as Tubulin Polymerization Inhibitors with Potential Anticancer Activities” (Pharmaceuticals, 2024).
Where two headings read alike, the source gives them in different places.

Key:
MDA-MB-435 = test: NCI-60 anticancer screen (SRB; single dose and five doses); conditions: Homo sapiens, MDA-MB-435, 48 h, read-out: Growth Percentage
HCC-2998 = test: as above; conditions: Homo sapiens, HCC 2998, 48 h, read-out: Growth Percentage
OVCAR-4 = test: as above; conditions: Homo sapiens, OVCAR-4, 48 h, read-out: Growth Percentage
NCI-H226 = test: as above; conditions: Homo sapiens, NCI-H226, 48 h, read-out: Growth Percentage
UACC-257 = test: as above; conditions: Homo sapiens, UACC-257, 48 h, read-out: Growth Percentage
OVCAR-5 = test: as above; conditions: Homo sapiens, OVCAR-5, 48 h, read-out: Growth Percentage
A549/ATCC = test: as above; conditions: Homo sapiens, A549, 48 h, read-out: Growth Percentage
MALME-3M = test: as above; conditions: Homo sapiens, 48 h, read-out: Growth Percentage
HCT-116 = test: as above; conditions: Homo sapiens, HCT-116, 48 h, read-out: Growth Percentage
LOX IMVI = test: as above; conditions: Homo sapiens, 48 h, read-out: Growth Percentage
786-0 = test: as above; conditions: Homo sapiens, 786-0, 48 h, read-out: Growth Percentage
HL-60(TB) = test: as above; conditions: Homo sapiens, HL-60, 48 h, read-out: Growth Percentage
K-562 = test: as above; conditions: Homo sapiens, K562, 48 h, read-out: Growth Percentage
NCI-H522 = test: as above; conditions: Homo sapiens, NCI-H522, 48 h, read-out: Growth Percentage
SK-OV-3 = test: as above; conditions: Homo sapiens, SK-OV-3, 48 h, read-out: Growth Percentage
HT29 = test: as above; conditions: Homo sapiens, HT-29, 48 h, read-out: Growth Percentage
UO-31 = test: as above; conditions: Homo sapiens, UO-31, 48 h, read-out: Growth Percentage
SNB-19 = test: cells; conditions: Homo sapiens, SNB-19, 48 h, read-out: Growth Percentage
U251 = test: NCI-60 anticancer screen (SRB; single dose and five doses); conditions: Homo sapiens, U-251, 48 h, read-out: Growth Percentage
NCI/ADR-RES = test: as above; conditions: Homo sapiens, 48 h, read-out: Growth Percentage
MCF7 = test: as above; conditions: Homo sapiens, MCF7, 48 h, read-out: Growth Percentage
T-47D = test: as above; conditions: Homo sapiens, T47D, 48 h, read-out: Growth Percentage
MOLT-4 = test: as above; conditions: Homo sapiens, MOLT-4, 48 h, read-out: Growth Percentage
OVCAR-3 = test: cells; conditions: Homo sapiens, OVCAR-3, 48 h, read-out: Growth Percentage
KM12 = test: NCI-60 anticancer screen (SRB; single dose and five doses); conditions: Homo sapiens, KM12, 48 h, read-out: Growth Percentage
[1] = system: 60 human tumor cell lines panel; test: NCI-60 anticancer screen, whole panel (means and ranges over the cell lines); format: cell-based; conditions: Homo sapiens, 48 h
SK-MEL-5 = test: NCI-60 anticancer screen (SRB; single dose and five doses); conditions: Homo sapiens, SK-MEL-5, 48 h, read-out: Growth Percentage
HCT-15 = test: as above; conditions: Homo sapiens, HCT-15, 48 h, read-out: Growth Percentage
TK-10 = test: as above; conditions: Homo sapiens, TK-10, 48 h, read-out: Growth Percentage
[2] = read-out: growth percentages against most of the tested cells (lowest to highest)
[3] = mean over the tested cell lines, dose of 10 μM, read-out: Mean growth percentage

SMILES	activity at 10 µM (MDA-MB-435) [%]	activity at 10 µM (HCC-2998) [%]	activity at 10 µM (OVCAR-4) [%]	activity at 10 µM (NCI-H226) [%]	activity at 10 µM (UACC-257) [%]	activity at 10 µM (OVCAR-5) [%]	activity at 10 µM (A549/ATCC) [%]	activity at 10 µM (HCT-116) [%]	activity at 10 µM (LOX IMVI) [%]	activity at 10 µM (786-0) [%]	activity at 10 µM (HL-60(TB)) [%]	activity at 10 µM (K-562) [%]	activity at 10 µM (NCI-H522) [%]	activity at 10 µM (SK-OV-3) [%]	activity at 10 µM (HT29) [%]	activity at 10 µM (SNB-19) [%]	activity at 10 µM (U251) [%]	activity at 10 µM (NCI/ADR-RES) [%]	activity at 10 µM (MCF7) [%]	activity at 10 µM (T-47D) [%]	other results
Cc1[nH]c(=S)sc1C(=O)/C=C/c1cccc(F)c1 [2b, (E)-3-(3-Fluorophenyl)-1-(4-Methyl-2-Thioxo-2,3-Dihydrothiazol-5-yl)Prop-2-En-1-One]	35.9	58.2	79.5	85.7	83.7	88.2	76.4	21.2	13.8	46.9	12	22.8	63.9	111	47.1	44	17.6	10.8	7.97	0.69	activity at 10 µM (MALME-3M): 101%; activity at 10 µM (UO-31): 44.3%; activity at 10 µM (MOLT-4): 43.6%; activity at 10 µM (OVCAR-3): -1.17%; activity at 10 µM (KM12): 11.9%; activity at 10 µM [1, 2]: -22.7 to 106%; activity at 10 µM [1, 3]: 47.5%; activity at 10 µM (SK-MEL-5): 62.2%; activity at 10 µM (HCT-15): 19.1%
Cc1[nH]c(=S)sc1C(=O)/C=C/c1ccccc1Cl [2d, (E)-3-(2-Chlorophenyl)-1-(4-Methyl-2-Thioxo-2,3-Dihydrothiazol-5-yl)Prop-2-En-1-One]	80.8	132	90.3	89.6	87.2	116	87.6	44.6	57.5	93.1	53	47.4	90.1	118	122	85.2	63.3	88.8	28.9	47.3	activity at 10 µM (MALME-3M): 105%; activity at 10 µM (UO-31): 73.7%; activity at 10 µM (MOLT-4): 84.2%; activity at 10 µM (OVCAR-3): 77.4%; activity at 10 µM (KM12): 63.8%; activity at 10 µM [1, 3]: 79.4%; activity at 10 µM ([1]; range over the cell lines, dose of 10 μM, read-out: growth percentages against most of the tested cells (lowest to highest)): 14.1 to 116%; activity at 10 µM (SK-MEL-5): 68.5%; activity at 10 µM (HCT-15): 57.4%
COc1ccc(/C=C/C(=O)c2sc(=S)[nH]c2C)c(OC)c1 [2n, (E)-3-(2,4-Dimethoxyphenyl)-1-(4-Methyl-2-Thioxo-2,3-Dihydrothiazol-5-yl)Prop-2-En-1-One]	84.7	80.7	52	79.7	84.4	120	90	62.3	57.8	85.9	55.8	48.9	73.5	101	115	77.4	68.6	48	46	30.9	activity at 10 µM (TK-10): 94.1%; activity at 10 µM (MOLT-4): 72.3%; activity at 10 µM (OVCAR-3): 91.2%; activity at 10 µM (KM12): 73.4%; activity at 10 µM [1, 2]: 19.2 to 123%; activity at 10 µM [1, 3]: 75.1%; activity at 10 µM (SK-MEL-5): 37.8%; activity at 10 µM (HCT-15): 45.8%
